system: HBV in 2.2.15 cells; assay: 2.2.15 cells: viral product in cell lysates quantified via quantitative real time PCR; assay type: cell-based, hepatitis B virus (HBV); conditions: Hepatitis B virus, 120 h, day 5 post treatment, 50% reduction of viral product vs no drug controls, readout (qPCR, HBsAg or HBeAg) not specified for the column
Experimental: 2.2.15 cells are passaged upon attaining confluency in DMEM/F12 media in the presence of 10% FBS, Penn/Strep, and 250 ug/mL G418. Novel compounds are 5 fold serially diluted in DMSO and added to 96 well plates containing 35,000 cells/well at a 1:200 dilution so that the final concentration of DMSO is 0.5%. On day 5, post treatment cell lysates and supernatants are harvested for analysis.
Cells are lysed using Agilent Sidestep Lysis buffer, diluted 1:100 and quantified via quantitative real time PCR. Commercially available ELISA kits are used to quantitate the viral proteins HBsAg (Alpco) or HBeAg (US Biological) by following the manufacturer's recommended protocol after diluting samples to match the linear range of their respective assays. Irrespective of readout, compound concentrations that reduce viral product accumulation in the cell lysates or supernatants by 50% relative to no drug controls (EC50) are reported; EC50 ranges are as follows: A<0.1 μM; B 0.2-1 μM; C>1 μM.

Question: CC(C)[C@@H]1Cn2nc(-c3cccnc3)c(-c3cccnc3)c2-c2cc(=O)c(C(=O)O)cn21 [Example 177, (R)-6-isopropyl-10-oxo-1,2-di(pyridin-3-yl)-5,6-dihydro-10H-pyrazolo[1,5-a]pyrido[2,1-c]pyrazine-9-carboxylic acid] was tested. Which EC50 did it give?
Answer: 200 to 1000 nM

Question: CC(C)(C)[C@@H]1Cn2ncc(-c3cncnc3)c2-c2cc(=O)c(C(=O)O)cn21 [Example 120, (R)-6-(tert-butyl)-10-oxo-1-(pyrimidin-5-yl)-5,6-dihydro-10H-pyrazolo[1,5-a]pyrido[2,1-c]pyrazine-9-carboxylic acid] was tested. Which EC50 did it give?
Answer: > 1000 nM

Question: How did the EC50 turn out when O=C(O)c1cn2c(cc1=O)-c1c(-c3ccc(F)cc3)c(-c3ccc(F)cc3)nn1CC2 [Example 200, 1,2-bis(4-fluorophenyl)-10-oxo-5,6-dihydro-10H-pyrazolo[1,5-a]pyrido[2,1-c]pyrazine-9-carboxylic acid] was run?
Answer: < 100 nM

Question: For CC(C)[C@@H]1Cn2nc(C3CC3)c(-c3cncc(F)c3)c2-c2cc(=O)c(C(=O)O)cn21 [Example 135, (R)-2-cyclopropyl-1-(5-fluoropyridin-3-yl)-6-isopropyl-10-oxo-5,6-dihydro-10H-pyrazolo[1,5-a]pyrido[2,1-c]pyrazine-9-carboxylic acid], which EC50 is on record?
Answer: < 100 nM

Question: CC(C)[C@@H]1Cn2nc(-c3ccc(OC4CC4)cc3)c(-c3ccc(OC4CC4)cc3)c2-c2cc(=O)c(C(=O)O)cn21 [Example 176, (R)-1,2-bis(4-cyclopropoxyphenyl)-6-isopropyl-10-oxo-5,6-dihydro-10H-pyrazolo[1,5-a]pyrido[2,1-c]pyrazine-9-carboxylic acid] was tested. Which EC50 did it give?
Answer: 200 to 1000 nM

Question: Which EC50 does the source give for CCOc1ccccc1-c1nn2c(c1F)-c1cc(=O)c(C(=O)O)cn1[C@H](C(C)(C)C)C2 [Example 92, (R)-6-(tert-butyl)-2-(2-ethoxyphenyl)-1-fluoro-10-oxo-5,6-dihydro-10H-pyrazolo[1,5-a]pyrido[2,1-c]pyrazine-9-carboxylic acid] here?
Answer: < 100 nM

Question: With CC(C)(C)[C@@H]1Cn2ncc(-c3ccccc3C(F)(F)F)c2-c2cc(=O)c(C(=O)O)cn21 [Example 121, (R)-6-(tert-butyl)-10-oxo-1-(2-(trifluoromethyl)phenyl)-5,6-dihydro-10H-pyrazolo[1,5-a]pyrido[2,1-c]pyrazine-9-carboxylic acid] as the compound, how does the EC50 read?
Answer: > 1000 nM

Question: O=C(O)c1cn2c(cc1=O)-c1c(-c3ccccc3F)c(-c3ccccc3F)nn1CC2 [Example 202, 1,2-bis(2-fluorophenyl)-10-oxo-5,6-dihydro-10H-pyrazolo[1,5-a]pyrido[2,1-c]pyrazine-9-carboxylic acid] was tested. Which EC50 did it give?
Answer: < 100 nM

Question: Which EC50 does the source give for CC(C)(C)[C@@H]1Cn2nc(-c3ccc(F)cc3)c(Cl)c2-c2cc(=O)c(C(=O)O)cn21 [Example 87, (R)-6-(tert-butyl)-1-chloro-2-(4-fluorophenyl)-10-oxo-5,6-dihydro-10H-pyrazolo[1,5-a]pyrido[2,1-c]pyrazine-9-carboxylic acid] here?
Answer: < 100 nM

Question: Which EC50 does the source give for CC(C)[C@@H]1Cn2nc(C3CC3)c(-c3ccccc3O)c2-c2cc(=O)c(C(=O)O)cn21 [Example 141, (R)-2-cyclopropyl-1-(2-hydroxyphenyl)-6-isopropyl-10-oxo-5,6-dihydro-10H-pyrazolo[1,5-a]pyrido[2,1-c]pyrazine-9-carboxylic acid] here?
Answer: < 100 nM

Question: With CC(C)[C@@H]1Cn2nc(-c3cccc(O)c3)c(-c3cccc(O)c3)c2-c2cc(=O)c(C(=O)O)cn21 [Example 178, (R)-1,2-bis(3-hydroxyphenyl)-6-isopropyl-10-oxo-5,6-dihydro-10H-pyrazolo[1,5-a]pyrido[2,1-c]pyrazine-9-carboxylic acid] as the compound, how does the EC50 read?
Answer: < 100 nM

Question: With CC(C)[C@@H]1Cn2nc(C3CC3)c(-c3ccnnc3)c2-c2cc(=O)c(C(=O)O)cn21 [Example 145, (R)-2-cyclopropyl-6-isopropyl-10-oxo-1-(pyridazin-4-yl)-5,6-dihydro-10H-pyrazolo[1,5-a]pyrido[2,1-c]pyrazine-9-carboxylic acid] as the compound, how does the EC50 read?
Answer: 200 to 1000 nM

Question: How did the EC50 turn out when CC(C)[C@@H]1Cn2nc(-c3cccc(Cl)c3)c(-c3cccc(Cl)c3)c2-c2c(F)c(=O)c(C(=O)O)cn21 [Example 185, (R)-1,2-bis(3-chlorophenyl)-11-fluoro-6-isopropyl-10-oxo-5,6-dihydro-10H-pyrazolo[1,5-a]pyrido[2,1-c]pyrazine-9-carboxylic acid] was run?
Answer: 200 to 1000 nM

Question: Which EC50 does the source give for CC(C)[C@@H]1Cn2nc(C3CC3)c(-c3cnsc3)c2-c2cc(=O)c(C(=O)O)cn21 [Example 138, (R)-2-cyclopropyl-6-isopropyl-1-(isothiazol-4-yl)-10-oxo-5,6-dihydro-10H-pyrazolo[1,5-a]pyrido[2,1-c]pyrazine-9-carboxylic acid] here?
Answer: < 100 nM

Question: CC(C)(C)[C@@H]1Cn2cc(-c3ccc(F)cc3)nc2-c2cc(=O)c(C(=O)O)cn21 [Example 90, (R)-6-(tert-butyl)-2-(4-fluorophenyl)-10-oxo-5,6-dihydro-10H-imidazo[1,2-a]pyrido[2,1-c]pyrazine-9-carboxylic acid] was tested. Which EC50 did it give?
Answer: 200 to 1000 nM

Question: For CC(C)[C@@H]1Cn2nc(-c3ccncc3)c(-c3ccncc3)c2-c2cc(=O)c(C(=O)O)cn21 [Example 175, (R)-6-isopropyl-10-oxo-1,2-di(pyridin-4-yl)-5,6-dihydro-10H-pyrazolo[1,5-a]pyrido[2,1-c]pyrazine-9-carboxylic acid], which EC50 is on record?
Answer: 200 to 1000 nM

Question: Which EC50 does the source give for CC(C)[C@@H]1Cn2nc(C3CC3)c(-c3cnco3)c2-c2cc(=O)c(C(=O)O)cn21 [Example 139, (R)-2-cyclopropyl-6-isopropyl-1-(oxazol-5-yl)-10-oxo-5,6-dihydro-10H-pyrazolo[1,5-a]pyrido[2,1-c]pyrazine-9-carboxylic acid] here?
Answer: 200 to 1000 nM

Question: With CC(C)(C)[C@@H]1Cn2nc(-c3ccc(F)cc3)c(-c3ccoc3)c2-c2cc(=O)c(C(=O)O)cn21 [Example 167, (R)-6-(tert-butyl)-2-(4-fluorophenyl)-1-(furan-3-yl)-10-oxo-5,6-dihydro-10H-pyrazolo[1,5-a]pyrido[2,1-c]pyrazine-9-carboxylic acid] as the compound, how does the EC50 read?
Answer: < 100 nM

Question: For CCOc1ccccc1-c1cnn2c1-c1cc(=O)c(C(=O)O)cn1[C@H](C(C)(C)C)C2 [Example 124, (R)-6-(tert-butyl)-1-(2-ethoxyphenyl)-10-oxo-5,6-dihydro-10H-pyrazolo[1,5-a]pyrido[2,1-c]pyrazine-9-carboxylic acid], which EC50 is on record?
Answer: < 100 nM

Question: Which EC50 does the source give for CC(C)[C@@H]1Cn2nc(-c3ccncc3)c(-c3ccncc3)c2-c2c(F)c(=O)c(C(=O)O)cn21 [Example 184, (R)-11-fluoro-6-isopropyl-10-oxo-1,2-di(pyridin-4-yl)-5,6-dihydro-10H-pyrazolo[1,5-a]pyrido[2,1-c]pyrazine-9-carboxylic acid] here?
Answer: 200 to 1000 nM

Question: CC(C)(C)[C@@H]1Cn2nc(C3CC3)c(-c3ccnnc3)c2-c2cc(=O)c(C(=O)O)cn21 [Example 161, (R)-6-(tert-butyl)-2-cyclopropyl-10-oxo-1-(pyridazin-4-yl)-5,6-dihydro-10H-pyrazolo[1,5-a]pyrido[2,1-c]pyrazine-9-carboxylic acid] was tested. Which EC50 did it give?
Answer: 200 to 1000 nM

Question: How did the EC50 turn out when CC(C)(C)[C@@H]1Cn2nc(-c3cc(F)ccc3OCC(F)(F)F)c(Cl)c2-c2cc(=O)c(C(=O)O)cn21 [Example 89, (R)-6-(tert-butyl)-1-chloro-2-(5-fluoro-2-(2,2,2-trifluoroethoxy)phenyl)-10-oxo-5,6-dihydro-10H-pyrazolo[1,5-a]pyrido[2,1-c]pyrazine-9-carboxylic acid] was run?
Answer: < 100 nM

Question: CC(C)[C@@H]1Cn2nc(C3CC3)c(-c3cn[nH]c3)c2-c2cc(=O)c(C(=O)O)cn21 [Example 137, (R)-2-cyclopropyl-6-isopropyl-10-oxo-1-(1H-pyrazol-4-yl)-5,6-dihydro-10H-pyrazolo[1,5-a]pyrido[2,1-c]pyrazine-9-carboxylic acid] was tested. Which EC50 did it give?
Answer: 200 to 1000 nM

Question: CC(C)[C@@H]1Cn2nc(-c3ccnnc3)c(-c3ccnnc3)c2-c2cc(=O)c(C(=O)O)cn21 [Example 173, (R)-6-isopropyl-10-oxo-1,2-di(pyridazin-4-yl)-5,6-dihydro-10H-pyrazolo[1,5-a]pyrido[2,1-c]pyrazine-9-carboxylic acid] was tested. Which EC50 did it give?
Answer: 200 to 1000 nM

Question: For CC(C)(C)[C@@H]1Cn2ncc(Cl)c2-c2cc(=O)c(C(=O)O)cn21 [Example 99, (R)-6-(tert-butyl)-1-chloro-10-oxo-5,6-dihydro-10H-pyrazolo[1,5-a]pyrido[2,1-c]pyrazine-9-carboxylic acid], which EC50 is on record?
Answer: 200 to 1000 nM

Question: How did the EC50 turn out when CC(C)(C)[C@@H]1Cn2ncc(-c3cccnc3)c2-c2cc(=O)c(C(=O)O)cn21 [Example 118, (R)-6-(tert-butyl)-10-oxo-1-(pyridin-3-yl)-5,6-dihydro-10H-pyrazolo[1,5-a]pyrido[2,1-c]pyrazine-9-carboxylic acid] was run?
Answer: < 100 nM

Question: With Cc1ncc(-c2cnn3c2-c2cc(=O)c(C(=O)O)cn2[C@H](C(C)(C)C)C3)s1 [Example 105, (R)-6-(tert-butyl)-1-(2-methylthiazol-5-yl)-10-oxo-5,6-dihydro-10H-pyrazolo[1,5-a]pyrido[2,1-c]pyrazine-9-carboxylic acid] as the compound, how does the EC50 read?
Answer: 200 to 1000 nM

Question: For CC(C)(C)[C@@H]1Cn2ncc(-c3ccncc3)c2-c2cc(=O)c(C(=O)O)cn21 [Example 119, (R)-6-(tert-butyl)-10-oxo-1-(pyridin-4-yl)-5,6-dihydro-10H-pyrazolo[1,5-a]pyrido[2,1-c]pyrazine-9-carboxylic acid], which EC50 is on record?
Answer: < 100 nM

Question: Which EC50 does the source give for CC(C)(C)[C@@H]1Cn2ncc(-c3cncs3)c2-c2cc(=O)c(C(=O)O)cn21 [Example 106, (R)-6-(tert-butyl)-10-oxo-1-(thiazol-5-yl)-5,6-dihydro-10H-pyrazolo[1,5-a]pyrido[2,1-c]pyrazine-9-carboxylic acid] here?
Answer: < 100 nM

From US12264159B2, “Functionalized heterocycles as antiviral agents” (Enanta Pharmaceuticals, Inc., priority 2018, dated 2025)
